For orientation: inhibition means the change of the read-out against control, counted positive when it falls. As usually defined, the Ki is a measure of affinity in units of concentration, obtained from inhibition or displacement.

The values that follow come from patent publication US20070270436A1, “NOVEL AMINO- AND IMINO-ALKYLPIPERAZINES” (Recordati Ireland Limited, priority 2006, published 2007).

Test [1] addresses T1, 5-HT1A receptors (Rattus norvegicus, UniProt P19327).
T1 construct: from tissue; host or cells: living male Sprague-Dawley rats (whole animal, behavioural read-out)
T1 sequence (P19327 1-422): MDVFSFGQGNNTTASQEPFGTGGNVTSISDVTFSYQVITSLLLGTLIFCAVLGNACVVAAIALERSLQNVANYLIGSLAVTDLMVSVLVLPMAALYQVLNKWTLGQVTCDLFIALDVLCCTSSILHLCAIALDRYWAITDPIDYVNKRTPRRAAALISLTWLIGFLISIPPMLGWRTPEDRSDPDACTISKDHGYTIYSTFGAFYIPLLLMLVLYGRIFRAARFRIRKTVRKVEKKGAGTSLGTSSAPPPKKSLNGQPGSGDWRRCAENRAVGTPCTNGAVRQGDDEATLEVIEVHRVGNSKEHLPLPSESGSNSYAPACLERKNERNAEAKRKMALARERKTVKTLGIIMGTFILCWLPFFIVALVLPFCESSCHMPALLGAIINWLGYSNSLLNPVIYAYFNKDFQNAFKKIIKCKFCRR
The test is described as follows: Inhibition of serotonergic syndrome (forepaw treading) induced by 8-OH-DPAT in rats (post-synaptic antagonism). In kind it is in vivo. Particulars: rat, 10 mg/kg p.o. On the procedure: The inhibitory effect of 5-HT1A-receptor antagonists on stereotyped forepaw treading induced in rats by subcutaneous injection of 8-OH-DPAT was evaluated by the method of Tricklebank (Tricklebank et al., Eur. J. Pharmacol., 117: 15, 1985) with minor modifications as described below.
Male Sprague-Dawley rats [Crl: CD® (SD) IGS BR] weighing 150-175 g from Charles River Italia were used. The animals were housed with free access to food and water and maintained on a forced 12-hour-light/12-hour-dark cycle at 22-24° C. of temperature. On the day of the experiment, the rats were placed singly in clear plastic containers, 10-15 minutes before oral administration of the vehicle or compounds to be tested. For evaluation of antagonistic activity, the compounds were administered 1 and 4 hours before induction of stereotypy by 8-OH-DPAT (1 mg/kg subcutaneously). Observation sessions lasted 30 seconds and began 3 minutes after 8-OH-DPAT treatment and were repeated every 3 minutes over a period of 15 minutes.
The appearance of the symptoms induced by postsynaptic stimulation of 5-HT1A receptors was noted, and the intensity was scored using an intensity scale in which: 0=absent, 1=equivocal, 2=present and 3=intense. Behavioural scores for treated rats were accumulated throughout the observation time (5 observation periods) and expressed as mean values of 4 rats/dose. Change in mean values of treated animals in comparison with control (vehicle) group, expressed as per-cent inhibition, was used to quantify the antagonistic activity.
In order to quantitate the potency of the compound of Example 24 in inhibiting the stereotypy (forepaw treading) induced by 8-OH-DPAT, an ED50 value (dose inhibiting by 50% the forepaw treading) was evaluated by means of linear regression using the least square method.

Test [2] concerns the target T2, human 5HT1A-serotonergic receptor (Homo sapiens, UniProt P08908).
T2 construct: expressed in transfected cells; host or cells: HeLa (human), stably transfected; membranes
T2 sequence (P08908 1-422): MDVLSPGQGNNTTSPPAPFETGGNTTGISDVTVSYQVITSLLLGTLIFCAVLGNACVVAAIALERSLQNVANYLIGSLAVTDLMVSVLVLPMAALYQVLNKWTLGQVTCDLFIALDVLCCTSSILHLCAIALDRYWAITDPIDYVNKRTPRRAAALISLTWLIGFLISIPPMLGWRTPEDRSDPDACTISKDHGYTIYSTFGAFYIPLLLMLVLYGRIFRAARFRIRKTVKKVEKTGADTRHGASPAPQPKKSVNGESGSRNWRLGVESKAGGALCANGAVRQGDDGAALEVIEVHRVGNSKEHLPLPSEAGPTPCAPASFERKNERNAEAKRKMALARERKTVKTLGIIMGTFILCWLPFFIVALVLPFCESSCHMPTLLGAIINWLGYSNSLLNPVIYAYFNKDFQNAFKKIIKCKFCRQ
Description: Radioligand binding to recombinant 5-HT1A receptor ([3H]8-OH-DPAT, HeLa cell membranes). The following applies: 1 nM [3H]8-OH-DPAT; Ki from IC50 by the Cheng equation; read-out: Ki (nM), binding affinity for 5HT1A receptor. The method, boiled down: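 Membranes from HeLa cells stably expressing human 5-HT1A incubated 30 min at 30 °C with 1 nM [3H]8-OH-DPAT in 50 mM Tris pH 7.4, 2.5 mM MgCl2, 10 μM pargyline; non-specific binding with 10 μM 5-HT. Filtration read-out; IC50 by curve fitting, converted to Ki via Cheng-Prusoff.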

The target in test [3] is T3, human cloned 5-HT1A receptors (Homo sapiens, UniProt P08908).
T3 construct: expressed in transfected cells; host or cells: HeLa (human), stably transfected; membranes
T3 sequence (P08908 1-422): T2 sequence (P08908 1-422)
Description: [35S]GTPγS binding, functional activity. The arrangement: key: neutral antagonists (NA); inverse agonists (IA). In kind it is biochemical. The following applies: HeLa membranes with human 5-HT1A. On the procedure:
On the date of the experiment, cell membranes from HeLa cells transfected with human cloned 5-HT1A receptors were resuspended in buffer pH 7.4 containing 20 mM HEPES, 3 mM MgCl2 and 120 mM NaCl (Stanton, J. A.; Beer, M. S. Eur. J. Pharmacol. 320, 267-275, 1997). The membranes were incubated with 10 μM GDP and decreasing concentrations of test drugs (from 100 μM to 0.1 nM) or decreasing concentrations of 5-HT (from 100 μM to 0.1 nM, reference curve) for 20 min at 30° C. in a final volume of about 0.25 ml. [^35S]GTPγS (200-250 pM in 10 μl) was added to samples and incubated for a further 30 min at 30° C. Non-specific binding was determined in the presence of 10 μM GTPγS. The incubation was stopped by addition of ice-cold HEPES buffer and rapid filtration on Unifilter GF/C filters, using a Filtermate cell harvester (Packard). The filters were washed four times with total 1.2 ml of same buffer. Radioactivity was counted by liquid scintillation spectrometry with efficiency >90% (TopCount Packard). Stimulation of [^35S]GTPγS binding induced by the compounds tested was expressed as % increase in binding above basal value, being the maximal stimulation observed with 5-HT taken as 100%. The concentration-response curve of the agonistic activity was analyzed by non linear fitting program (De Lean et al., Am. J. Physiol. 235, E97-E102, 1978).
A stimulation of [^35S]GTPγS binding represented the functional correlate of the binding of an agonist compound at the 5-HT1A receptors. Stimulation induced by the endogenous ligand 5-HT was considered the maximal stimulation attainable. Compounds stimulating [^35S]GTPγS binding at a lower level were considered as partial agonists. […] Compounds that reduced [^35S]GTPγS binding were considered as inverse agonists.

Where [4] appears, read: 1 h before 8-OH-DPAT 1 mg/kg s.c., read-out: % Inhibition of forepaw treading, 1 h.
The mark [5] stands for this setting: 4 h before 8-OH-DPAT 1 mg/kg s.c., read-out: % Inhibition of forepaw treading, 4 h.

Where two headings read alike, the source gives them in different places.

`COc1ccccc1N1CCN(CC[C@@H](c2ccccc2F)[C@H](NC(C)=O)C2CCCCC2)CC1` (racemic) [Example 7, N-{(RS,SR)-1-Cyclohexyl-2-(2-fluorophenyl)-4-[4-(2-methoxyphenyl)-piperazin-1-yl]butyl}acetamide]: the inhibition at 10 mg/kg in test [1] (setting [4]) is 87%; in test [1] (setting [5]), 86%. In addition, the Ki in test [2] stood at 1.69 nM. In addition, the “Functional Activity” value in test [3] was “IA”.

Regarding `COc1ccccc1N1CCN(CC[C@@H](c2ccccc2F)[C@H](NC(=S)N(C)C)C2CCCCC2)CC1` (single isomer, unassigned) [Example 24A, 3-{(1R,2S) or (1S,2R)-1-Cyclohexyl-2-(2-fluorophenyl)-4-[4-(2-methoxyphenyl)piperazin-1-yl]butyl}-1,1-dimethylthiourea], the Ki in test [2] amounted to 0.7 nM. Moreover, the “Functional Activity” value in test [3] is recorded as “IA”.

Turning to `CC(=O)N(C)C(C1CCCCC1)C(CCN1CCN(c2cccc3c2OCCO3)CC1)c1ccccc1F` (centres unmarked) [Example 41, N-[1-Cyclohexyl-4-[4-(2,3-dihydrobenzo[1,4]dioxin-5-yl)piperazin-1-yl]-2-(2-fluoro-phenyl)butyl]-N-methylacetamide], in test [2], the Ki came to 0.9 nM. In addition, the “Functional Activity” value in test [3] is “IA”.

Regarding `COC(=O)N[C@H](C1CCCCC1)[C@@H](CCN1CCN(c2ccccc2OC)CC1)c1ccccc1F` (racemic) [Example 17, (RS,SR)-{1-Cyclohexyl-2-(2-fluorophenyl)-4-[4-(2-methoxyphenyl)-piperazin-1-yl]butyl}carbamic acid methyl ester], the inhibition at 10 mg/kg worked out at 75% in test [1] (setting [4]) and 92% in test [1] (setting [5]). Besides, the inhibition constant (Ki) in test [2] is 0.68 nM. For the same compound, in test [3], the “Functional Activity” value is “IA”.

Consider `COc1ccccc1N1CCN(CC[C@@H](c2ccccc2F)[C@@H](C2CCCCC2)N(C)C(=S)N(C)C)CC1` (racemic) [Example 53, 1-{(RS,SR)-1-Cyclohexyl-2-(2-fluorophenyl)-4-[4-(2-methoxyphenyl)piperazin-1-yl]butyl}-1,3,3-trimethylthiourea], for which the Ki in test [2] was determined as 1.7 nM. Besides, in test [3], the “Functional Activity” value is “IA”.
